Measurements from paper PMC9447987, “Long-term memory CD8^+ T cells specific for SARS-CoV-2 in individuals who received the BNT162b2 mRNA vaccine” (Nature Communications, 2022).
Like-named read-outs stand apart in the source and are kept apart here.

Tests used:
[1] = test system: HLA-A*24:02-restricted CD8+ T cells; type: cell-based, human; details: for Freq of responder (%): of 17 vaccinated HLA-A*24:02+ individuals (Fig. 4b); for Resp: number of responders (individuals with epitope-specific CD8+ T cells): of 17 vaccinated HLA-A*24:02+ individuals, 1 μM peptide
[2] = target: HLA-A*24:02 (Homo sapiens, UniProt P04439, D101N/D140Y/D185E/E176V/E190D/F33S/G103R/G107R/I119L/I121M/I306V/K335N/L105A/L180Q/L300P/N151K/N90K/Q86E/Q94H/R106L/R138H/R89G/T104I/T345S/V100E/W191G/Y123F); test: HLA stabilization assay using RMA-S-A2402 cells; type: binding; details: for MFI, HLA-A2402 (APC), representative staining: RMA-S-A2402 cells
[3] = test system: HLA-A*24:02-peptide complexes; test: Peptide–MHC Complex Dissociation Assay using RMA-S-A2402 cells; type: binding, human; details: for % Mean Fluoresence: Fig.7d
[4] = 13 HLA-A*24:02+ individuals, C1R-A2402 pre-pulsed with 1 nM peptide
[5] = convalescent donor C2, 45.290 weeks since PCR-confirmed diagnosis, peptide-pulsed C1R-A2402
[6] = convalescent donor C3, 2.430 weeks since PCR-confirmed diagnosis, peptide-pulsed C1R-A2402
[7] = convalescent donor C4, 35.000 weeks since PCR-confirmed diagnosis, peptide-pulsed C1R-A2402
[8] = convalescent donor C5, 41.430 weeks since PCR-confirmed diagnosis, peptide-pulsed C1R-A2402
[9] = convalescent donor C6, 20.000 weeks since PCR-confirmed diagnosis, peptide-pulsed C1R-A2402
[10] = convalescent donor C7, 21.710 weeks since PCR-confirmed diagnosis, peptide-pulsed C1R-A2402
[11] = convalescent donor C8, 47.860 weeks since PCR-confirmed diagnosis, peptide-pulsed C1R-A2402
[12] = convalescent donor C9, 21.860 weeks since PCR-confirmed diagnosis, peptide-pulsed C1R-A2402
[13] = convalescent donor C10, 24.570 weeks since PCR-confirmed diagnosis, peptide-pulsed C1R-A2402
[14] = convalescent donor C11, 24.290 weeks since PCR-confirmed diagnosis, peptide-pulsed C1R-A2402
[15] = vaccinated donor V1, 19.000 weeks since 2nd dose, C1R-A2402 pre-pulsed with 1 μM peptide
[16] = vaccinated donor V2, 9.570 weeks since 2nd dose, C1R-A2402 pre-pulsed with 1 μM peptide
[17] = vaccinated donor V3, 8.860 weeks since 2nd dose, C1R-A2402 pre-pulsed with 1 μM peptide
[18] = vaccinated donor V4, 10.430 weeks since 2nd dose, C1R-A2402 pre-pulsed with 1 μM peptide
[19] = vaccinated donor V5, 10.570 weeks since 2nd dose, C1R-A2402 pre-pulsed with 1 μM peptide
[20] = vaccinated donor V6, 9.570 weeks since 2nd dose, C1R-A2402 pre-pulsed with 1 μM peptide
[21] = vaccinated donor V7, 10.140 weeks since 2nd dose, C1R-A2402 pre-pulsed with 1 μM peptide
[22] = vaccinated donor V8, 9.860 weeks since 2nd dose, C1R-A2402 pre-pulsed with 1 μM peptide
[23] = vaccinated donor V9, 20.570 weeks since 2nd dose, C1R-A2402 pre-pulsed with 1 μM peptide
[24] = vaccinated donor V10, 2.000 weeks since 2nd dose, C1R-A2402 pre-pulsed with 1 μM peptide
[25] = vaccinated donor V11, 1.430 weeks since 2nd dose, C1R-A2402 pre-pulsed with 1 μM peptide
[26] = vaccinated donor V12, 1.000 weeks since 2nd dose, C1R-A2402 pre-pulsed with 1 μM peptide
[27] = vaccinated donor V13, 9.000 weeks since 2nd dose, C1R-A2402 pre-pulsed with 1 μM peptide
[28] = vaccinated donor V14, 2.000 weeks since 2nd dose, C1R-A2402 pre-pulsed with 1 μM peptide
[29] = vaccinated donor V15, 6.860 weeks since 2nd dose, C1R-A2402 pre-pulsed with 1 μM peptide
[30] = vaccinated donor V16, 8.860 weeks since 2nd dose, C1R-A2402 pre-pulsed with 1 μM peptide
[31] = vaccinated donor V17, 4.140 weeks since 2nd dose, C1R-A2402 pre-pulsed with 1 μM peptide
[32] = Suppl. Fig. 3b (for Fig. 4a, 4b), peptide(-) 14.8, 26 °C (Maximum) 32.7

Sequence	IFNg-producing cells among CD8 T cells (%) [1, 5] [%]	IFNg-producing cells among CD8 T cells (%) [1, 6] [%]	IFNg-producing cells among CD8 T cells (%) [1, 7] [%]	IFNg-producing cells among CD8 T cells (%) [1, 8] [%]	IFNg-producing cells among CD8 T cells (%) [1, 9] [%]	IFNg-producing cells among CD8 T cells (%) [1, 10] [%]	IFNg-producing cells among CD8 T cells (%) [1, 11] [%]	IFNg-producing cells among CD8 T cells (%) [1, 12] [%]	IFNg-producing cells among CD8 T cells (%) [1, 13] [%]	IFNg-producing cells among CD8 T cells (%) [1, 14] [%]	IFNg-producing cells among CD8 T cells (%) [1, 15] [%]	IFNg-producing cells among CD8 T cells (%) [1, 16] [%]	IFNg-producing cells among CD8 T cells (%) [1, 17] [%]	IFNg-producing cells among CD8 T cells (%) [1, 18] [%]	IFNg-producing cells among CD8 T cells (%) [1, 19] [%]	IFNg-producing cells among CD8 T cells (%) [1, 20] [%]	IFNg-producing cells among CD8 T cells (%) [1, 21] [%]	IFNg-producing cells among CD8 T cells (%) [1, 22] [%]	IFNg-producing cells among CD8 T cells (%) [1, 23] [%]	IFNg-producing cells among CD8 T cells (%) [1, 24] [%]	other results
TYIKWPWWV [229E]																					sensitivity of S-QI9-specific T cells for the peptide compared with the SARS-CoV-2 S-QI9 epitope (in words) [1]: much lower sensitivity; number of individuals whose S-QI9-specific T cells moderately recognized the peptide [1, 4]: 7; number of individuals whose S-QI9-specific T cells uniformly recognized variant peptide and S-QI9 [1, 4]: 2; number of individuals whose S-QI9-specific bulk T cells exhibited no or very weak recognition [1, 4]: 4; MFI, HLA-A2402 (APC), representative staining ([2]; Suppl. Fig. 3d (for Fig. 7c), peptide(-) 11.3, 26 °C (Maximum) 24.0): 41.6; % Mean Fluoresence ([3]; post-incubation 0 hour, replicate 1): 100%; % Mean Fluoresence ([3]; post-incubation 0 hour, replicate 2): 100%; % Mean Fluoresence ([3]; post-incubation 0 hour, replicate 3): 100%; % Mean Fluoresence ([3]; post-incubation 1 hour, replicate 1): 44.6%; % Mean Fluoresence ([3]; post-incubation 1 hour, replicate 2): 48.7%; % Mean Fluoresence ([3]; post-incubation 1 hour, replicate 3): 47.1%; % Mean Fluoresence ([3]; post-incubation 2 hour, replicate 1): 19.2%; % Mean Fluoresence ([3]; post-incubation 2 hour, replicate 2): 17%; % Mean Fluoresence ([3]; post-incubation 2 hour, replicate 3): 16.5%; % Mean Fluoresence ([3]; post-incubation 4 hour, replicate 1): -1.1%; % Mean Fluoresence ([3]; post-incubation 4 hour, replicate 2): -0.2%; % Mean Fluoresence ([3]; post-incubation 4 hour, replicate 3): -1.9%; stability of the HLA-A*24:02-peptide complex (in words) ([3]; RMA-S-A2402 cells, 10 μM peptide, 0, 1, 2 and 4 h): weaker than that of the HLA-A*24:02-HKU1 or HLA-A*24:02-OC43 peptide complexes
YYHKNNKSW [S-YW9]	0.653	0.000	0.000	0.000	0.000	0.140	0.310	0.000	0.000	0.550	0.268	0	0.343	0	0.139	0.061	0.182	0.035	0.232	0	IFNg-producing cells among CD8 T cells (%) [1, 25]: 0.769%; IFNg-producing cells among CD8 T cells (%) [1, 26]: 0%; IFNg-producing cells among CD8 T cells (%) [1, 27]: 0%; IFNg-producing cells among CD8 T cells (%) [1, 28]: 0%; IFNg-producing cells among CD8 T cells (%) [1, 29]: 0.709%; IFNg-producing cells among CD8 T cells (%) [1, 30]: 0.019%; IFNg-producing cells among CD8 T cells (%) [1, 31]: 0.154%; MFI, HLA-A2402 (APC), representative staining [2, 32]: 10.2; binding to HLA-A*24:02 (in words) ([2]; […], 16 peptides tested at 100 μM): did not bind
VFVSNGTHWF [S-VFF10]	0.490	0.090	0.710	0.000	0.560	0.000	0.420	0.110	0.000	0.000	0	0	0	0.485	0.489	0	0	0	3.184	0	Freq of responder (%) [1]: 5.9%; Resp: number of responders (individuals with epitope-specific CD8+ T cells) [1]: one; IFNg-producing cells among CD8 T cells (%) [1, 25]: 0%; IFNg-producing cells among CD8 T cells (%) [1, 26]: 0.283%; IFNg-producing cells among CD8 T cells (%) [1, 27]: 0.024%; IFNg-producing cells among CD8 T cells (%) [1, 28]: 0%; IFNg-producing cells among CD8 T cells (%) [1, 29]: 0.253%; IFNg-producing cells among CD8 T cells (%) [1, 30]: 0%; IFNg-producing cells among CD8 T cells (%) [1, 31]: 0%; MFI, HLA-A2402 (APC), representative staining [2, 32]: 22.3; MFI, HLA-A2402 (APC), representative staining ([2]; Suppl. Fig. 3c (for Fig. 4c), peptide(-) 11.7, 26 °C (Maximum) 28.9): 37.9
VFKNIDGYF [S-VF9]	0.300	0.050	1.030	0.000	0.310	0.000	0.370	0.490	0.000	0.000	0	0	0	0.114	0.154	0	0.163	0	0	0	IFNg-producing cells among CD8 T cells (%) [1, 25]: 0%; IFNg-producing cells among CD8 T cells (%) [1, 26]: 0.427%; IFNg-producing cells among CD8 T cells (%) [1, 27]: 0%; IFNg-producing cells among CD8 T cells (%) [1, 28]: 0.009%; IFNg-producing cells among CD8 T cells (%) [1, 29]: 0%; IFNg-producing cells among CD8 T cells (%) [1, 30]: 0.255%; IFNg-producing cells among CD8 T cells (%) [1, 31]: 0.147%; MFI, HLA-A2402 (APC), representative staining [2, 32]: 38.0
GYLQPRTFLL [S-GL10]	0.450	0.140	1.440	0.000	0.260	0.000	0.120	0.130	0.000	0.000	0	0	0.487	0.245	0.041	0	0	0.018	0.481	0.057	Freq of responder (%) [1]: 5.9%; Resp: number of responders (individuals with epitope-specific CD8+ T cells) [1]: one; IFNg-producing cells among CD8 T cells (%) [1, 25]: 0.244%; IFNg-producing cells among CD8 T cells (%) [1, 26]: 1.194%; IFNg-producing cells among CD8 T cells (%) [1, 27]: 0%; IFNg-producing cells among CD8 T cells (%) [1, 28]: 0.774%; IFNg-producing cells among CD8 T cells (%) [1, 29]: 0.234%; IFNg-producing cells among CD8 T cells (%) [1, 30]: 0%; IFNg-producing cells among CD8 T cells (%) [1, 31]: 0%; MFI, HLA-A2402 (APC), representative staining [2, 32]: 15.2
